The values that follow come from patent US20260174677A1, “METHODS OF TREATING INSULIN RESISTANCE AND ASSOCIATED DISORDERS” (The University of Melboune, priority 2022, published 2026).

The subject of this assay is CSPG-ECM components (mixed CSPGs, aggrecan, chondroitin 4-sulfate). In words: CSPG-ECM binding assay with insulin-FITC in vitro. The procedure:
To determine the interaction of insulin with CSPG-ECM components in vitro, flat-bottom 96-well plates were first coated with 10 μg/ml poly-L-lysine overnight, followed by a rinsing with water. A purified CSPGs mix containing neurocan, phosphacan, versican and aggrecan (CC117, Merck Millipore, MA), purified aggrecan ([…], Merck Millipore, MA) or purified chondroitin 4-sulfate ([…], Selleck Chemicals, TX), were coated onto the 96-well plates at a concentration of 10 μg/ml for 4 h at RT, followed by a rinse with water. Insulin-FITC was incubated on plates containing ECM at concentrating ranging from 5 ng/ml-1 mg/ml for 2 h at RT and protected from light. Control wells contained either no ECM, bovine serum albumin (10 μg/ml) or poly-L-lysine alone. Wells were washed 3 times with water and imaged at 495 nm using a SPECTROstar Nano Microplate Reader (BMG Labtech, Germany). To digest CSPG-ECM or to negate CSPG-ECM negative charge. wells were incubated with either chABC (0.5 U/ml) or poly-l-arginine (10 μg/ml, […], Merck Millipore, MA) for 1 h at 37° C. after the ECM coating, washed 3 times with water and then incubated with insulin-FITC.

On to “insulin-FITC: fluorescein isothiocyanate tagged insulin”, for which the “binding of insulin-FITC to mixed CSPGs, aggrecan and C4S” value (2-hours incubation on coated plates) is “specific dose-dependent binding”.

With poly-arginine, for the setting “in the presence of poly-arginine”, the “insulin-ECM interactions (insulin-FITC with CSPG mix) in the presence of the agent” value is “significantly reduced”.
